One assay relates to eNOS-pThr495. The assay is described as follows: eNOS-pThr495 protein levels in HAECs. In kind it is cell-based, human. Conditions: for eNOS-pThr497/495 levels increase: HAECs, DL-Hcy 500 μmol/L or D-Glu 25 mmol/L. On the procedure: (FIG. 7A). eNOS protein levels in mouse aorta of Cbs^−/+ mice (Left Panel) and HAECs (Right Panel). (FIG. 7B). eNOS-pThr497/495 protein levels in mouse aorta of Cbs^−/+ mice (Left Panel) and in HAECs (Right Panel). At the age of 8-week, Cbs^−/+ mice were fed with a high methionine diet (HM, methionine: 2% w/w) for 8 weeks, and/or injected with streptozotocin (STZ, i.p., 40 mg/kg) for 5 consecutive days starting from the first day of experiment. Mice fed with a control diet (CT, methionine: 0.37% w/w) and injected with vehicle (50 mmol/L citrate buffer) served as controls. Human aortic endothelial cells (HAECs, passage 8-9) were cultured in EC medium which contains 5 mmol/L D-glucose (D-Glu), treated with DL-homocysteine (DL-Hcy, 500 μmol/L) and/or D-Glu (25 mmol/L). (FIG. 7C). eNOS-pThr495 protein levels in HAECs. HAECs (passage 8-9) were cultured in EC medium which contains 5 mmol/L D-glucose (D-Glu), treated with DL-homocysteine (DL-Hcy, 500 μmol/L) and D-Glu (25 mmol/L for 48 hrs with or without non-specific PKC inhibitor GF109203X (GFX) (2 μmol/L, 30 min.); control adenoviruse (Ad-CT, 200 MOI, 72 hrs), dominant negative PKCβ2 adenovirus (Adv-dnPKCβ2, 200 MOI, 72 hrs); μ-calpain siRNA (μ-calpsiRNA, Santa Cruz #sc-29885, 72 hrs), or MDL ([…], 48 hrs, Sigma #M6690). (FIG. 7D). Transfection effect of Adv-dnPKCβ2in HAECs. Cultured HAECs (passage 8, 80% confluence) were treated with 12.5, 25, 50, 100 and 200 MOI Adv-dnPKCβ2 for 48 hrs. n=3, *p<0.05 vs control; †p<0.05 vs DL-Hcy-treated HAECs; ‡p<0.05 vs D-Glu-treated HAECs; #p<0.05 vs DL-Hcy/D-Glu-treated HAECs. Cbs, cystathionine β-synthase; eNOS, endothelial nitric oxide synthase; eNOS-pThr495/497, phosphorylation of eNOS at threonine 497 (mouse)/495 (human).
Human aortic endothelial cells (HAECs) were cultured in cell culture medium (M199, HyClone) as previously described (Wang et al., 1997, J Biol Chem 272:25380-25385). The HAECs were treated with DL-Hcy (200 or 500 μmol/L) and/or D-glucose (D-Glu, 25 mmol/L) for 24 or 48 hrs in the presence or absence of selected pharmacological inhibitors or siRNA or adenovirus.

In a further assay the test system is NO production in HAECs. Kind of assay: NO production in HAECs by DAF-FM staining. The format is cell-based, human. The note with it: for NO generation: HAECs, DL-Hcy 500 μmol/L and/or D-Glu 25 mmol/L for 48 hrs. On the procedure:
(FIG. 6A). Images of NO. Nitric oxide (NO) production in HAECs was measured by staining intact HAECs with NO marker DAF-FM. N^G-nitro-L-arginine methyl ester (L-NAME, 100 μmol/L, Sigma #N5751) was added in the last hour as a negative control. (FIG. 6B). Quantification of NO. (FIG. 6C). eNOS activity. Human aortic endothelial cells (HAECs) were cultured in EC medium which contains 5 mmol/L D-Glucose (D-Glu), and treated with DL-homocysteine (DL-Hcy, 500 μmol/L) and/or (D-Glu, 25 mmol) without or with MDL28170 (MDL) for 48 hrs, CTsiRNA or μ-calpsiRNA for 72 hrs. L-NAME (100 μmol/L) was added in the last hour. NO was measured by staining intact HAECs with NO marker (DAF-FM, 10 μmol/L, Sigma #D2321, 30 mins.). Endothelial nitric oxide synthase (eNOS) activity was assessed by measuring of ^3H-L-arginine conversion to ^3H-citrulline in intact HAECs. n=3, *p<0.05 vs control; †p<0.05 vs DL-Hcy-treated HAECs; ‡p<0.05 vs D-Glu-treated HAECs; #p<0.05 vs DL-Hcy/D-Glu-treated HAECs. DAF-FM, 4-Amino-5-methylamino-2′,7′-difluorescein; CTsiRNA, control siRNA; HG, hyperglycemia; HHcy, hyperhomocysteinemia; μ-calpsiRNA, μ-calpain siRNA.
HAECs treated with or without DL-Hcy and/or D-Glu for 48 hrs were stained with 4-Amino-5-Methylamino-2′,7′-Difluorofluorescein (DAF-FM). To explore the role of calpain, especially μ-calpain, the DL-Hcy/D-Glu-treated HAECs were also treated with MDL28170 (MDL, 20 μmol/L) and μ-calpain siRNA, respectively. HAECs treated with L-NAME (100 μmol/L) for 1 hr before DAF-FM staining were used as negative controls. eNOS activity in HAECs was determined by measuring the conversion of ^3H-Arg to ^3H-citrulline in intact cells as previous described (Jiang et al., 2005, Arterioscl Throm Vas 25:2515-2521).

`O=C[C@H](O)[C@@H](O)[C@H](O)[C@H](O)CO` [D-Glu, D-glucose] yielded an eNOS-pThr497/495 levels increase in the assay on eNOS-pThr495 of 1.5 fold. In addition, the NO generation in the assay with NO production in HAECs is on record as 36 % of the control.

For MDL28170, in the assay with eNOS-pThr495 (HAECs with DL-Hcy 500 μmol/L and D-Glu 25 mmol/L 48 hrs, GFX 2 μmol/L 30 min, MDL 20 mmol/L 48 hrs, Adv-dnPKCβ2 200 MOI 72 hrs, siRNA 72 hrs), the “HHcy/HG-induced eNOS-pThr495” value was “completely rescued”. In the assay with NO production in HAECs (HHcy/HG (DL-Hcy/D-Glu)-treated HAECs, improved from 26%, MDL 20 μmol/L 48 hrs, siRNA 72 hrs), this compound displayed an NO production of 86%.

In the assay on eNOS-pThr495, `NC(CCS)C(=O)O` (racemic) [DL-Hcy, DL-homocysteine] gave an eNOS-pThr497/495 levels increase of 1.6 fold. For the same compound, the NO generation in the assay with NO production in HAECs is given as 78 % of the control.
